Where two headings read alike, the source gives them in different places.
Tests used:
[1] = test system: CD8+ T cells; experiment: Ex vivo IFN-γ ELISPOT, CD8+ T cells with peptide-pulsed autologous DCs; assay type: cell-based, human; conditions: donor 443 (LTBI), linear regression
[2] = test system: CD8+ T cells; conditions: donor 160; ex vivo, autologous DCs pulsed with epitope; clones published previously ref 17; cited from earlier work
Excerpt: Table 3 Summary of CD8+ T Cell Epitopes Identified | column: Epitope-Specific T Cells^a

Sequence | Epitope-Specific T Cells [1] | Epitope-Specific T Cells [2]
ELPQWLSANR | <10 IFN-γ spot forming units per 2 | –
RADEEQQQAL | – | 120 IFN-γ spot forming units per 2
